Assay results as given in patent publication US11697648B2, “Fused pyrimidine pyridinone compounds as JAK inhibitors” (THERAVANCE BIOPHARMA R&D IP, LLC, priority 2019, dated 2023).

Legend:
JAK3 = JAK3 (Homo sapiens (Human), UniProt P52333); test: Biochemical JAK3 kinase assay (LanthaScreen)
Outline: (§1)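 GST-JAK + GFP-STAT1 peptide, HEPES pH 7.5/MgCl2/EGTA/Brij-35 buffer; cpd preincubation 1 h RT; ATP start, 1 h RT; stop with 10 mM EDTA + 2 nM Tb-anti-pSTAT1; TR-FRET 520/495. 4-parameter IC50 → pKi (Cheng-Prusoff).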

[1] = test system: IL-2 stimulated STAT5 phosphorylation in Tall-1 human T cell line (JAK3); test: Cellular JAK3 potency assay: inhibition of IL-2 stimulated pSTAT5 in Tall-1 T cells; type: cell-based
Outline: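 AlphaLISA SureFire Ultra measures STAT5 Tyr694/699 phosphorylation in lysed Tall-1 human T cells. Cells were exposed to compound for 1 h at 37 °C before a 30 min IL-2 challenge (300 ng/ml final). Values are pIC50 means with standard deviation from signal-versus-concentration curves.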

Tyk2 = Tyk2 (Homo sapiens (Human), UniProt P29597); test: Biochemical Tyk2 kinase assay (LanthaScreen)
Outline: as §1

JAK2 = JAK2 (Homo sapiens (Human), UniProt O60674); test: Biochemical JAK2 kinase assay (LanthaScreen)
Outline: as §1

JAK1 = JAK1 (Homo sapiens (Human), UniProt P23458); test: Biochemical JAK1 kinase assay (LanthaScreen)
Outline: as §1

[2] = selectivity, difference of pKi values
[3] = IL-2 stimulated pSTAT5 in Tall-1 T cells
[4] = selectivity JAK3 over JAK1, difference of pKi
[5] = IL-2 stimulated pSTAT5, Tall-1 T cells

Chain of Tyk2 (P29597 whole entry): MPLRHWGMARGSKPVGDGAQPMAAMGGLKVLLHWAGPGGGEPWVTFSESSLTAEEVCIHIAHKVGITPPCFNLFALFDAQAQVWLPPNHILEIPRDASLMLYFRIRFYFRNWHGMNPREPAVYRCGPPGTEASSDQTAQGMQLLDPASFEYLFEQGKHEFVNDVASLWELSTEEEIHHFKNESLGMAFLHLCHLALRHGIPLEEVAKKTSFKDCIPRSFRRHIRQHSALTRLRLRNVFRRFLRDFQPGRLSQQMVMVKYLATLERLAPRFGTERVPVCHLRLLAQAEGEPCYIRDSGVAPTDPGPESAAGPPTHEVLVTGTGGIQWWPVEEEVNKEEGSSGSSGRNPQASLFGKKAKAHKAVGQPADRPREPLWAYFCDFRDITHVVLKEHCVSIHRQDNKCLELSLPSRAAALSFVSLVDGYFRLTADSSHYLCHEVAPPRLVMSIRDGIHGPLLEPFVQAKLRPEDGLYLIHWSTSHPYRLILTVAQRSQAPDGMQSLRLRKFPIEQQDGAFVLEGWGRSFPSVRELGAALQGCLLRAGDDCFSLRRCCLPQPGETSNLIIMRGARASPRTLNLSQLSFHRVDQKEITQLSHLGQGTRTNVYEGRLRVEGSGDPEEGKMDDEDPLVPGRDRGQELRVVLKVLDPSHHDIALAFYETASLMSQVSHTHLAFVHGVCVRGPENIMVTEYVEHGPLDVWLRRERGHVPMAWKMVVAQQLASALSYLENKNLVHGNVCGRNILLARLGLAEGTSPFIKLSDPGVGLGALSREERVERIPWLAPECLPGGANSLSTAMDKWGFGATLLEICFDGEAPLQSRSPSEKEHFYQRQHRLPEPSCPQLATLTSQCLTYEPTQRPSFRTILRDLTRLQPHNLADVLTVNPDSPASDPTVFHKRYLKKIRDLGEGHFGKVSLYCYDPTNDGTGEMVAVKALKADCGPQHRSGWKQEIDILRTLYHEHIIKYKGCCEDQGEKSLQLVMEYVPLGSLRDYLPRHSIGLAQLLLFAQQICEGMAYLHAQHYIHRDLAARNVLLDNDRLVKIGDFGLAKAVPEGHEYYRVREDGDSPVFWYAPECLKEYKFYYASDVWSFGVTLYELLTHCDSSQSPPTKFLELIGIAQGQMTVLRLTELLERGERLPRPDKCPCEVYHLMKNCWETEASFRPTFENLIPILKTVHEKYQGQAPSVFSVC
Chain of JAK1 (P23458 whole entry): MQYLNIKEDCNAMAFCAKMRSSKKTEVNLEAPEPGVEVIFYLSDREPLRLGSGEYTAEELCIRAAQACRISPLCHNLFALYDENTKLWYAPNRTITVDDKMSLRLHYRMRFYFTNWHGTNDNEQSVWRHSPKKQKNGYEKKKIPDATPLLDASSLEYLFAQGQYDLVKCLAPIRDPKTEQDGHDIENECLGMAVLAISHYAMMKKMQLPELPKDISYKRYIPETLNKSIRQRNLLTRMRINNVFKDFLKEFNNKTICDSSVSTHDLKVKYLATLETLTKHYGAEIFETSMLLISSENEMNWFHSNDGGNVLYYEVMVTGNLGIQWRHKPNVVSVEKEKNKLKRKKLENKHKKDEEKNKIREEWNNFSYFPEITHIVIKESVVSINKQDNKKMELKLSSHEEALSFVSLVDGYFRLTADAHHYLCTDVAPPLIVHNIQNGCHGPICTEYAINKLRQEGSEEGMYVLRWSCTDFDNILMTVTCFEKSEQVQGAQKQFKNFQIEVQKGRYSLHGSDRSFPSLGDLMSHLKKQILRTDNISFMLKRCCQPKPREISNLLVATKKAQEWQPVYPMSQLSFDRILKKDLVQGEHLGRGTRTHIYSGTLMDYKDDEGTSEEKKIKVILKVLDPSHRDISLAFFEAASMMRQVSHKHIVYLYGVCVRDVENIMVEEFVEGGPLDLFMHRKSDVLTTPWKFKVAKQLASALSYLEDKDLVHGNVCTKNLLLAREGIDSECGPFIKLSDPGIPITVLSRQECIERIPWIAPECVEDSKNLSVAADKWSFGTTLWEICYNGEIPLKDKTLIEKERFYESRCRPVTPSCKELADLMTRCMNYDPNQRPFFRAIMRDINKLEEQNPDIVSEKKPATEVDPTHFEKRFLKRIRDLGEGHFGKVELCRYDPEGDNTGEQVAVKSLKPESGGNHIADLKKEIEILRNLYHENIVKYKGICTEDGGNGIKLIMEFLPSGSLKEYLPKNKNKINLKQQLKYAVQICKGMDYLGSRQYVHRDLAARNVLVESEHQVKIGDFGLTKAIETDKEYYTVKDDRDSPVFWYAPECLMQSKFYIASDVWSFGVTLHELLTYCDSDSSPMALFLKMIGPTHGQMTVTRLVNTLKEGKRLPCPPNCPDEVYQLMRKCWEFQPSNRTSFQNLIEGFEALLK
Chain of JAK2 (O60674 whole entry): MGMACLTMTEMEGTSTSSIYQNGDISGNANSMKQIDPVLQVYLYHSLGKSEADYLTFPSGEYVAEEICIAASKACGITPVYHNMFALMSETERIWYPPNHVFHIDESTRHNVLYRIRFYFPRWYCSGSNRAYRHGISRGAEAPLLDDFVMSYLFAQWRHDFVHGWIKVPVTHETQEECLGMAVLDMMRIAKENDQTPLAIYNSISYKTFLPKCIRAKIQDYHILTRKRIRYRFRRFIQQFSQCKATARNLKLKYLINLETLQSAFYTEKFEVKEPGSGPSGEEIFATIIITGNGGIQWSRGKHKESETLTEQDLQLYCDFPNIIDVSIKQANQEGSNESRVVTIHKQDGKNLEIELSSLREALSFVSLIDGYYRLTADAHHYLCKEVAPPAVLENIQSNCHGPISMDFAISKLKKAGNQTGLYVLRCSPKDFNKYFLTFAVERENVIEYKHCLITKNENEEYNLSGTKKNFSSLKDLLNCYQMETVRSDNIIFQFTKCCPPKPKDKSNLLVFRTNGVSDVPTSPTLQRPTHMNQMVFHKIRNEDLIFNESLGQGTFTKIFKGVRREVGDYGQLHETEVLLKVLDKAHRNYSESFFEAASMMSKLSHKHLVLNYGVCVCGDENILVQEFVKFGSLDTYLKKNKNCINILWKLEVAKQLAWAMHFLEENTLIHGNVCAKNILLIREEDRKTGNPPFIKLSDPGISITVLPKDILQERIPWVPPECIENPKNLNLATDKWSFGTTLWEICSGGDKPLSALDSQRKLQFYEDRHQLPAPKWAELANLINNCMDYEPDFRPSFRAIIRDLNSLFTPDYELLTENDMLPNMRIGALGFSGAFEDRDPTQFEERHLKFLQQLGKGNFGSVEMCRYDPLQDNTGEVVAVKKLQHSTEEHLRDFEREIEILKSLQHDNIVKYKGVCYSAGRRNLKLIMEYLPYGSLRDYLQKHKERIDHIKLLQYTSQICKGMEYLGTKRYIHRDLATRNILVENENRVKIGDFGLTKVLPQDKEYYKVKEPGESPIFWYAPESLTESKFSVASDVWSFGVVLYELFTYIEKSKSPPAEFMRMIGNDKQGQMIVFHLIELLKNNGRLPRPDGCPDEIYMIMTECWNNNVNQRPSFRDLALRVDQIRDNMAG
Chain of JAK3 (P52333 whole entry): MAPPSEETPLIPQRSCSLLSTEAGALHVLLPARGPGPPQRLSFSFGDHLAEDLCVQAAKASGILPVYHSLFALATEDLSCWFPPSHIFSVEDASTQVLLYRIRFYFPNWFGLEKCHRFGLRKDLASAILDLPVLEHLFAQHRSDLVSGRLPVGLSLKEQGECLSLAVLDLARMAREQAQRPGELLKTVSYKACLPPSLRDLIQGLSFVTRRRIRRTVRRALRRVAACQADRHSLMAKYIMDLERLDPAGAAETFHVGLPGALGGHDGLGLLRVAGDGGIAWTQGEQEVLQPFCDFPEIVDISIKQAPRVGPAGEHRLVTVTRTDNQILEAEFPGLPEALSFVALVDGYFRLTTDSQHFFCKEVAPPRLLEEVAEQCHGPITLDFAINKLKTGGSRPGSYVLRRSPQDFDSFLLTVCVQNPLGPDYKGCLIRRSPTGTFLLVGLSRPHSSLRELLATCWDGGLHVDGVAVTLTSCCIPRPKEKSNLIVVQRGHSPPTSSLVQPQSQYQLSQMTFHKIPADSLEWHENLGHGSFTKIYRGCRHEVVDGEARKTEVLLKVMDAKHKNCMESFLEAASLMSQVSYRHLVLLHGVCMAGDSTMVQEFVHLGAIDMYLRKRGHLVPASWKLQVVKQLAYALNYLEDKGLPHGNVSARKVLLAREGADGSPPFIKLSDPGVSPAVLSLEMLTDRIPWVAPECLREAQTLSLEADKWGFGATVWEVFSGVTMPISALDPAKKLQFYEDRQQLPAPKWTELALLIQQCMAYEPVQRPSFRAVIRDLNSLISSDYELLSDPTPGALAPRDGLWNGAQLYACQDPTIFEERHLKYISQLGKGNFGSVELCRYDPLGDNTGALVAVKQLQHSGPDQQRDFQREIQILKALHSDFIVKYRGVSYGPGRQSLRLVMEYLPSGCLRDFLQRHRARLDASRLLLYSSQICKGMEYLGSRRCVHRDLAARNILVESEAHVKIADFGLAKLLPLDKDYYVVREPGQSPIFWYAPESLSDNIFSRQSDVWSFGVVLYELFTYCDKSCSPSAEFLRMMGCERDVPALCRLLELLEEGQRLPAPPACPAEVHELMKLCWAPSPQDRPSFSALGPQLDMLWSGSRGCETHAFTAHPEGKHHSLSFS

SMILES: C=CC(=O)N1CCN(CCn2c(=O)ccc3cnc(Nc4cnn(CC)c4)nc32)[C@@H](C)C1 [Example 243]
- JAK 3 (pKi) (JAK3): B (B represents pKi value between 9 and 10 (Ki between 1 nM and 0.1 nM))
- JAK3 (pKi)-JAK1 (pKi) (JAK3; [2]): A (A represents a value of 3 or above)
- Tall-1 (pIC50) [1, 3]: B (B represents a pC50 value between 6.7 (included) and 7.5 (IC50 between 200 nM and 32 nM))
- Tyk 2 (pKi) (Tyk2): E (E represents a pKi value of 7 or below (Ki of 100 nM or above))
- JAK 2 (pKi) (JAK2): E (E represents a pKi value of 7 or below (Ki of 100 nM or above))
- JAK 1 (pKi) (JAK1): E (E represents a pKi value of 7 or below (Ki of 100 nM or above))

SMILES: C=CC(=O)N1CCN(CCn2c(=O)ccc3cnc(Nc4ccc(N5CCN(S(=O)(=O)N(C)C)CC5)cc4)nc32)CC1 [Example 211]
- JAK 3 (pKi) (JAK3): A (A represents a pKi value≥10 (Ki≤0.1 nM))
- JAK3 (pKi)-JAK1 (pKi) (JAK3; [4]): A (A represents a value of 3 or above)
- Tall-1 (pIC50) [1, 5]: B (B represents a pC50 value between 6.7 (included) and 7.5 (IC50 between 200 nM and 32 nM))
- Tyk 2 (pKi) (Tyk2): E (E represents a pKi value of 7 or below (Ki of 100 nM or above))
- JAK 2 (pKi) (JAK2): E (E represents a pKi value of 7 or below (Ki of 100 nM or above))
- JAK 1 (pKi) (JAK1): E (E represents a pKi value of 7 or below (Ki of 100 nM or above))

SMILES: C=CC(=O)N1CC(CCn2c(=O)ccc3cnc(Nc4ccn(C)n4)nc32)C1 [Example 226]
- JAK 3 (pKi) (JAK3): B (B represents pKi value between 9 and 10 (Ki between 1 nM and 0.1 nM))
- JAK3 (pKi)-JAK1 (pKi) (JAK3; [4]): A (A represents a value of 3 or above)
- Tall-1 (pIC50) [1, 5]: C (C represents a pIC50 value between 6 and 6.7 (IC50 between 1 μM and 200 nM))
- Tyk 2 (pKi) (Tyk2): E (E represents a pKi value of 7 or below (Ki of 100 nM or above))
- JAK 2 (pKi) (JAK2): E (E represents a pKi value of 7 or below (Ki of 100 nM or above))
- JAK 1 (pKi) (JAK1): E (E represents a pKi value of 7 or below (Ki of 100 nM or above))

SMILES: C=CC(=O)N1CC(C(C)Cn2c(=O)ccc3cnc(Nc4ccc(N5CCN(C)CC5)cc4)nc32)C1 (stereo not drawn) [Example 234]
- JAK 3 (pKi) (JAK3): B (B represents pKi value between 9 and 10 (Ki between 1 nM and 0.1 nM))
- JAK3 (pKi)-JAK1 (pKi) (JAK3; [4]): A (A represents a value of 3 or above)
- Tall-1 (pIC50) [1, 5]: B (B represents a pC50 value between 6.7 (included) and 7.5 (IC50 between 200 nM and 32 nM))
- Tyk 2 (pKi) (Tyk2): E (E represents a pKi value of 7 or below (Ki of 100 nM or above))
- JAK 2 (pKi) (JAK2): E (E represents a pKi value of 7 or below (Ki of 100 nM or above))
- JAK 1 (pKi) (JAK1): E (E represents a pKi value of 7 or below (Ki of 100 nM or above))

SMILES: C=CC(=O)N1CCN(CCn2c(=O)ccc3cnc(Nc4ccc(N5C[C@@H](C)N(C)[C@@H](C)C5)cc4)nc32)CC1 [Example 248]
- JAK 3 (pKi) (JAK3): B (B represents pKi value between 9 and 10 (Ki between 1 nM and 0.1 nM))
- JAK3 (pKi)-JAK1 (pKi) (JAK3; [2]): A (A represents a value of 3 or above)
- Tall-1 (pIC50) [1, 3]: A (A represents a pIC50 value≥7.5 (IC50≤32 nM))
- Tyk 2 (pKi) (Tyk2): E (E represents a pKi value of 7 or below (Ki of 100 nM or above))
- JAK 2 (pKi) (JAK2): E (E represents a pKi value of 7 or below (Ki of 100 nM or above))
- JAK 1 (pKi) (JAK1): E (E represents a pKi value of 7 or below (Ki of 100 nM or above))

SMILES: C=CC(=O)N1CC(CCn2c(=O)ccc3cnc(Nc4ccc(N(C)CCO)cc4)nc32)C1 [Example 224]
- JAK 3 (pKi) (JAK3): B (B represents pKi value between 9 and 10 (Ki between 1 nM and 0.1 nM))
- JAK3 (pKi)-JAK1 (pKi) (JAK3; [4]): A (A represents a value of 3 or above)
- Tall-1 (pIC50) [1, 5]: B (B represents a pC50 value between 6.7 (included) and 7.5 (IC50 between 200 nM and 32 nM))
- Tyk 2 (pKi) (Tyk2): E (E represents a pKi value of 7 or below (Ki of 100 nM or above))
- JAK 2 (pKi) (JAK2): E (E represents a pKi value of 7 or below (Ki of 100 nM or above))
- JAK 1 (pKi) (JAK1): E (E represents a pKi value of 7 or below (Ki of 100 nM or above))

SMILES: CN(C)C/C=C/C(=O)N1CC(CCn2c(=O)ccc3cnc(Nc4ccc(N5CCN(C)CC5)cn4)cc32)C1 [Example 11, (E)-1-(2-(1-(4-(dimethylamino)but-2-enoyl)azetidin-3-yl)ethyl)-7-((5-(4-methylpiperazin-1-yl)pyridin-2-yl)amino)-1,6-naphthyridin-2(1H)-one]
- JAK 3 (pKi) (JAK3): B (B represents pKi value between 9 and 10 (Ki between 1 nM and 0.1 nM))
- JAK3 (pKi)-JAK1 (pKi) (JAK3; [4]): A (A represents a value of 3 or above)
- Tall-1 (pIC50) [1, 5]: B (B represents a pC50 value between 6.7 (included) and 7.5 (IC50 between 200 nM and 32 nM))
- Tyk 2 (pKi) (Tyk2): E (E represents a pKi value of 7 or below (Ki of 100 nM or above))
- JAK 2 (pKi) (JAK2): E (E represents a pKi value of 7 or below (Ki of 100 nM or above))
- JAK 1 (pKi) (JAK1): E (E represents a pKi value of 7 or below (Ki of 100 nM or above))

SMILES: C=CC(=O)N1CC(CCn2c(=O)ccc3cnc(Nc4ccc5[nH]cnc5c4)nc32)C1 [Example 84]
- JAK 3 (pKi) (JAK3): B (B represents pKi value between 9 and 10 (Ki between 1 nM and 0.1 nM))
- JAK3 (pKi)-JAK1 (pKi) (JAK3; [4]): A (A represents a value of 3 or above)
- Tall-1 (pIC50) [1, 5]: C (C represents a pIC50 value between 6 and 6.7 (IC50 between 1 μM and 200 nM))
- Tyk 2 (pKi) (Tyk2): E (E represents a pKi value of 7 or below (Ki of 100 nM or above))
- JAK 2 (pKi) (JAK2): E (E represents a pKi value of 7 or below (Ki of 100 nM or above))
- JAK 1 (pKi) (JAK1): E (E represents a pKi value of 7 or below (Ki of 100 nM or above))

SMILES: C=CC(=O)N1CCN(CCn2c(=O)ccc3cnc(Nc4ccc(N5CCN(C)CC5)c(F)c4)nc32)CC1 [Example 39]
- JAK 3 (pKi) (JAK3): B (B represents pKi value between 9 and 10 (Ki between 1 nM and 0.1 nM))
- JAK3 (pKi)-JAK1 (pKi) (JAK3; [4]): A (A represents a value of 3 or above)
- Tall-1 (pIC50) [1, 5]: B (B represents a pC50 value between 6.7 (included) and 7.5 (IC50 between 200 nM and 32 nM))
- Tyk 2 (pKi) (Tyk2): E (E represents a pKi value of 7 or below (Ki of 100 nM or above))
- JAK 2 (pKi) (JAK2): E (E represents a pKi value of 7 or below (Ki of 100 nM or above))
- JAK 1 (pKi) (JAK1): E (E represents a pKi value of 7 or below (Ki of 100 nM or above))

SMILES: C=CC(=O)N1CCN(CCn2c(=O)ccc3cnc(Nc4cnn(Cc5ccccc5)c4)nc32)[C@@H](C)C1 [Example 237]
- JAK 3 (pKi) (JAK3): B (B represents pKi value between 9 and 10 (Ki between 1 nM and 0.1 nM))
- JAK3 (pKi)-JAK1 (pKi) (JAK3; [2]): A (A represents a value of 3 or above)
- Tall-1 (pIC50) [1, 3]: B (B represents a pC50 value between 6.7 (included) and 7.5 (IC50 between 200 nM and 32 nM))
- Tyk 2 (pKi) (Tyk2): E (E represents a pKi value of 7 or below (Ki of 100 nM or above))
- JAK 2 (pKi) (JAK2): E (E represents a pKi value of 7 or below (Ki of 100 nM or above))
- JAK 1 (pKi) (JAK1): E (E represents a pKi value of 7 or below (Ki of 100 nM or above))

SMILES: C=CC(=O)N1CCN(CCn2c(=O)ccc3cnc(Nc4cnn(CCOCC)c4)nc32)[C@@H](CC)C1 [Example 221]
- JAK 3 (pKi) (JAK3): B (B represents pKi value between 9 and 10 (Ki between 1 nM and 0.1 nM))
- JAK3 (pKi)-JAK1 (pKi) (JAK3; [4]): A (A represents a value of 3 or above)
- Tall-1 (pIC50) [1, 5]: B (B represents a pC50 value between 6.7 (included) and 7.5 (IC50 between 200 nM and 32 nM))
- Tyk 2 (pKi) (Tyk2): E (E represents a pKi value of 7 or below (Ki of 100 nM or above))
- JAK 2 (pKi) (JAK2): E (E represents a pKi value of 7 or below (Ki of 100 nM or above))
- JAK 1 (pKi) (JAK1): E (E represents a pKi value of 7 or below (Ki of 100 nM or above))
